Values joined by “and” are separate entries in the source; they are usually repeats but may differ in a detail not shown here. Identical values can stand only once.
Experiments:
ABCG2 = biological target: T1, ABCG2 (Homo sapiens, UniProt Q9UNQ0); experiment: (§1) Inhibition of ABCG2 (unknown origin)-mediated mitoxantrone efflux at 5 uM relative to control; settings: probe mitoxantrone
T1 sequence (Q9UNQ0 whole entry): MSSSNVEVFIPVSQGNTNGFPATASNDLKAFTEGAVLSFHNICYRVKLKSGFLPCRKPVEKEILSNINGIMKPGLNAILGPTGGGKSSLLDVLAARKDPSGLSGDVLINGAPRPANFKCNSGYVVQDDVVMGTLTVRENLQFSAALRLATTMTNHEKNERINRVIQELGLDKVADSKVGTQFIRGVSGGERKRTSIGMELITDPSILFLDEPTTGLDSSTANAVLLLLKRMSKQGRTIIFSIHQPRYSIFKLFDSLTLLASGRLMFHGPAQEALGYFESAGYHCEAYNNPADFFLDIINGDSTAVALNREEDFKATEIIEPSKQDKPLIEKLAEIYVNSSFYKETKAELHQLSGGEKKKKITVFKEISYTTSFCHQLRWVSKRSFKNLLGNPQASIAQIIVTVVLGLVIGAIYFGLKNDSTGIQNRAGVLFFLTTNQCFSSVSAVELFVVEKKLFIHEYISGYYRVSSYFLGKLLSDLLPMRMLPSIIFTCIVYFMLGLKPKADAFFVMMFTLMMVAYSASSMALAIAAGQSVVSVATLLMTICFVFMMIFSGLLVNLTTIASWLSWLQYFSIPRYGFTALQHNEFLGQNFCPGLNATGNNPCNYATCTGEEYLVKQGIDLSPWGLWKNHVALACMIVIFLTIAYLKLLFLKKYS

[1] = biological target: T2, Broad substrate specificity ATP-binding cassette transporter ABCG2 (Homo sapiens, UniProt Q9UNQ0); experiment: Inhibition of ABCG2 (unknown origin)-mediated mitoxantrone efflux
T2 sequence (Q9UNQ0 whole entry): T1 sequence (Q9UNQ0 whole entry)

[2] = biological target: T2, Broad substrate specificity ATP-binding cassette transporter ABCG2; experiment: as §1; settings: 5 µM
[3] = biological target: T2, Broad substrate specificity ATP-binding cassette transporter ABCG2; experiment: Inhibition of ABCG2 (unknown origin) expressed in HEK293 cells assessed as reduction in mitoxantrone accumulation incubated for 30 mins by flow cytometric method; format: cell-based

SMILES	inhibition at 5 µM (ABCG2) [%]	EC50 [1] [nM]	inhibition (INH) [2]	EC50 [3] [nM]
O=C1CCCc2c1c1c(n2CCc2ccccc2)-c2ccccc2C1=O	100	430		
O=C1CCCc2c1c1c(n2CCCc2ccccc2)-c2ccccc2C1=O	83	790		
O=C1CC(c2ccccc2)Cc2c1c1c(n2Cc2ccccc2)-c2ccccc2C1=O (stereo not drawn)	68	960		
COc1ccc2[nH]cc(CCNC(=O)c3cc(=O)c4c(OCc5ccc(Br)cc5)cccc4o3)c2c1	98			
CN(CCc1cn(C)c2ccccc12)C(=O)c1cc(=O)c2c(OCc3ccc(Br)cc3)cccc2o1	88			
COc1ccc2c(CCNC(=O)c3cc(=O)c4c(OCc5ccc(Br)cc5)cccc4o3)c[nH]c2c1	97			
Cn1cc(CCNC(=O)c2cc(=O)c3c(OCc4ccc(Br)cc4)cccc3o2)c2ccccc21	85			
CN(CCc1c[nH]c2ccccc12)C(=O)c1cc(=O)c2c(OCc3ccc(Br)cc3)cccc2o1	105			
COc1ccc2[nH]cc(CCN(C)C(=O)c3cc(=O)c4c(OCc5ccc(Br)cc5)cccc4o3)c2c1	101			
O=C(NCc1cn(CCc2c[nH]c3ccccc23)nn1)c1cc(=O)c2c(OCc3ccc(Br)cc3)cccc2o1	87			
COc1ccc2[nH]cc(CCN(C)Cc3cc(=O)c4c(OCc5ccc(Br)cc5)cccc4o3)c2c1		1800	46% and 75%	
CC1CC(=O)c2c3c(n(CCc4ccccc4)c2C1)-c1ccccc1C3=O (stereo not drawn)	100	230		
O=C1CC(c2ccccc2)Cc2c1c1c(n2CCc2ccccc2)-c2ccccc2C1=O (stereo not drawn)	83	490		
COc1cccc(CCn2c3c(c4c2-c2ccccc2C4=O)C(=O)CCC3)c1	78	310		
CC(C)n1c2c(c3c1-c1ccccc1C3=O)C(=O)C(Cc1ccccc1)(Cc1ccccc1)CC2	90	610		
O=c1cc(-c2ccccc2)c(=O)c2c1c1c(=O)c3ccccc3c1n2CCc1ccccc1	128	430		
C=CCOc1ccc(CNCCc2c[nH]c3ccccc23)cc1OCC				130
O=c1cc(-c2ccccc2)c(=O)c2c1c1c(=O)c3ccccc3c1n2Cc1ccccc1	41			
Cc1cc(=O)c2c3c(=O)c4ccccc4c3n(CCc3ccccc3)c2c1=O	99	840		
O=c1ccc(=O)c2c1c1c(=O)c3ccccc3c1n2CCCc1ccccc1	33			
O=c1ccc(=O)c2c1c1c(=O)c3ccccc3c1n2CCc1ccccc1	18			
COc1ccc2c3c([nH]c2c1)[C@H](C=C(C)C)N1C(=O)[C@@H]2CCCN2C(=O)[C@@H]1C3 [FUMITREMORGIN]	100	2000		

Source: ChEMBL document CHEMBL5365392, “Inhibitors of ABCG2-mediated multidrug resistance: Lead generation through computer-aided drug design” (Eur J Med Chem, 2023)
